Results: patent publication US11452291B2, “Induction of a physiological dispersion response in bacterial cells in a biofilm” (The Research Foundation for The State University of New York, priority 2007, dated 2022)

Tests used:
[1] = system: P. aeruginosa biofilms; experiment: Microtiter plate dispersion bioassay; format: cell-based, Pseudomonas aeruginosa PAO1
Description: Microtiter plate dispersion bioassays were used to test various preparations for their ability to exogenously induce biofilm dispersion. Biofilms were grown on the inside surface of microtiter plate wells using a semi-batch culture method in which the medium within each well was replaced periodically to reduce the accumulation of native dispersion inducing factors. Biofilms grown in this manner were treated with dispersion inducer or sterile medium to release cells into the bulk liquid and evaluate dispersed cell number by measuring optical density. Briefly, sterile polystyrene 96 well plates were etched with acetone for 10 seconds to create a rough surface for the attachment of microbial cells. After drying for 24 hours, plates were inoculated with 150 μL/well of overnight culture containing the test organism, previously diluted 1:20 in growth medium and incubated at 30° C. with shaking at 200 rpm. Medium in the wells was replaced every 24 hours for 5 days and every 12 hours on day 6 and day 7. Medium was then replaced after 7 hours. Dispersion induction was tested by adding 150 μL growth medium containing dispersion inducer for 1 hr at 30° C. or sterile medium as a control. Medium containing dispersed cells was then transferred by pipet to a non-etched microtiter plate and the optical density (OD570) was determined (ELx808 Absorbance Microplate Reader; BioTek Instruments, Inc., Winooski, Vt.). […] Note: Microtiter plate dispersion bioassays were not suitable for determining absolute magnitude of an induced dispersion response because in a semi-batch system, control and test samples are susceptible to natural dispersion against which the activity of exogenous induction is measured. All efficiency studies were performed using biofilm tube reactor or flow-cell continuous culture systems and were based on both total cell counts and viable cell counts.

[2] = system: biofilm cells of Staphylococcus aureus; details: cited from earlier work
[3] = system: P. aeruginosa biofilm microcolonies; experiment: Microscopic analysis of mature biofilm in flow cell; format: cell-based, Pseudomonas aeruginosa
Description: A continuous-culture once-through flow cell was configured to observe the growth and development of biofilms attached to a glass substratum. The flow cell was constructed of aluminum containing a chamber 1.0 mm by 1.4 cm by 4.0 cm capped with a glass cover slip. Sterile modified EPRI medium was pumped from a 10-liter vessel through silicone tubing to the flow cell using a Masterflex 8-roller-head peristaltic pump at a flow rate of 0.13 mL/min. Flow through the chamber was laminar, with a Reynolds number of 0.17, having a fluid residence time of 4.3 min. Medium leaving the flow cell was discharged to an effluent reservoir via silicone tubing. The entire system was closed to the outside environment but maintained in equilibrium with atmospheric pressure by a 0.2-μm-pore-size gas-permeable filter fitted to each vessel. […] Each cell cluster was measured to determine its height by focusing from the substratum through to the apex of the cluster, and its width by measurement at the base of the cell cluster using a stage micrometer. Cell clusters were defined as cells embedded within an exopolysaccharide matrix attached to the substratum and lacking motility; void areas within cell clusters were determined by the observation of free-swimming bacteria within a space inside a cell cluster. […]

Compound: CC(C)CCCCCCC/C=C\C(=O)O [DSF, reference compound]
- promotion of dispersion of P. aeruginosa [1]: shown not to promote dispersion

Compound: OCl [chlorine, sodium hypochlorite]
- increase in concentration required to kill biofilm cells compared to planktonic cells [2]: 600 fold

Compound: CCCCCCC/C=C\C(=O)O [cis-2-decenoic acid]
- dispersion activity compared to un-concentrated spent culture medium ([1]; 1.0 nanomolar): greater dispersion activity at 1.0 nanomolar than un-concentrated spent culture medium
- time at which microcolony disaggregation begins ([3]; 10 μM added to mature biofilm in flow cell): 11 min
- effect on biofilm microcolony by microscopy ([3]; FIG. 13): completely disrupting a biofilm microcolony

Compound: CCCCCCC/C=C/C(=O)O [trans-2-decenoic acid]
- concentration range with dispersion activity ([1]; biofilm cultures grown in microtiter plates): activity only at millimolar concentrations
